Assay results published in PubChem BioAssay (NCI).
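Exposure lasted 48 hours, with cells grown in 96-well plates and compounds tested at five concentrations. GI50 is the concentration that inhibits growth by half. Definition used: TGI = concentration required for complete inhibition of growth.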

Experiments:
Experiment in all cases: growth of human tumour cells (NCI), 48 h
[1] = tested on: SK-MEL-5 melanoma
[2] = tested on: COLO 205 colon
[3] = tested on: CCRF-CEM leukemia
[4] = tested on: M14 melanoma
[5] = tested on: UACC-62 melanoma
[6] = tested on: OVCAR-8 ovarian
[7] = tested on: SR leukemia
[8] = tested on: NCI-H460 lung
[9] = tested on: SF-268 CNS
[10] = tested on: PC-3 prostate
[11] = tested on: IGROV1 ovarian
[12] = tested on: KM12 colon
[13] = tested on: UACC-257 melanoma
[14] = tested on: LOX IMVI melanoma
[15] = tested on: SK-OV-3 ovarian
[16] = tested on: MALME-3M melanoma
[17] = tested on: T-47D breast
[18] = tested on: MOLT-4 leukemia
[19] = tested on: OVCAR-4 ovarian
[20] = tested on: NCI/ADR-RES ovarian
[21] = tested on: NCI-H522 lung
[22] = tested on: HT29 colon
[23] = tested on: SF-295 CNS
[24] = tested on: SNB-75 CNS
[25] = tested on: U251 CNS
[26] = tested on: NCI-H23 lung
[27] = tested on: UO-31 renal
[28] = tested on: SN12C renal
[29] = tested on: OVCAR-5 ovarian

With `COc1ccc(-c2nsc3c2NC(=O)CC3c2cccc(Cl)c2)cc1` (configuration not stated) the GI50 [1] was 1380 nM, the TGI [1] was 51.6 µM and the GI50 [2] was 771 nM. The TGI [2] was > 42.4 µM, the GI50 [3] was 2440 nM and the TGI [3] was > 100 µM. For the same molecule, the GI50 [4] was 1460 nM, the TGI [4] was > 100 µM and the GI50 [5] was 2310 nM. For the same molecule, the TGI [5] was > 100 µM, the GI50 [6] was 4.35 µM and the TGI [6] was > 100 µM. For the same molecule, the GI50 [7] was 519 nM, the TGI [7] was > 100 µM and the GI50 [8] was 1220 nM. For the same molecule, the TGI [8] was > 100 µM, the GI50 [9] was 8.04 µM and the TGI [9] was > 100 µM. For the same molecule, the GI50 [10] was 2120 nM, the TGI [10] was > 100 µM and the GI50 [11] was 3.33 µM. For the same molecule, the TGI [11] was > 100 µM, the GI50 [12] was 743 nM and the TGI [12] was > 100 µM. The GI50 [13] was 10.8 µM, the TGI [13] was > 100 µM and the GI50 [14] was 5.57 µM. The TGI [14] was > 100 µM, the GI50 [15] was 3.31 µM and the TGI [15] was > 100 µM. For the same molecule, the GI50 [16] was 6.59 µM, the TGI [16] was > 100 µM and the GI50 [17] was 3.54 µM. The TGI [17] was > 100 µM, the GI50 [18] was 4.11 µM and the TGI [18] was > 100 µM. The GI50 [19] was 7.62 µM, the TGI [19] was > 100 µM and the GI50 [20] was 604 nM. For the same molecule, the TGI [20] was > 100 µM, the GI50 [21] was 766 nM and the TGI [21] was 5.99 µM. For the same molecule, the GI50 [22] was 377 nM, the TGI [22] was 4.91 µM and the GI50 [23] was 1990 nM. For the same molecule, the TGI [23] was 13.5 µM, the GI50 [24] was 1530 nM and the TGI [24] was 7.46 µM. For the same molecule, the GI50 [25] was 2330 nM, the TGI [25] was > 100 µM and the GI50 [26] was 4.62 µM. The TGI [26] was > 100 µM, the GI50 [27] was 5.22 µM and the TGI [27] was > 100 µM. For the same molecule, the GI50 [28] was > 22.8 µM, the TGI [28] was > 100 µM and the GI50 [29] was 5.3 µM.
